# Results published in US20160169896A1, “Methods for Predicting and Treating Bone Metastases in Prostate Cancer Patients” (INSERM (institut NAtional de la Sante et de la Recherche …, priority 2012, published 2016).
# Test system: PC3 cells
# Test: Real-time PCR of factor expression in PC3 cells treated with the ERRα inverse agonist XCT790 versus DMSO
# Format: cell-based, human
# Conditions: XCT790 5 10^−7M, 24 hours, compared to DMSO control
# Description: PC3 cell line was obtained from the American Type Culture Collection (ATCC, Manassas, Va., USA). PC3 cells are routinely cultured in F12K nutrient mixture and DMEM medium (Gibco/Invitrogen; Carlsbad, Calif., USA) respectively supplemented with 10% (v/v) fetal bovine serum (FBS; Perbio/Thermo scientific; Rockford, Ill., USA) and 1% (v/v) penicillin/streptomycin (Invitrogen; Carlsbad, Calif., USA) at 37° C. in a 5% CO2 incubator.
# Human ERRα cDNA (WT) was obtained from mRNA extracted from BO2-FRT cells, by using RT-PCR with specific primers ((NM_004451.3) (Fradet et al, 2011). Amplimers were sequenced for verification. The pcDNA5/ERRα-WT (WT) and empty pcDNA5 (used as control (CT)) constructs were transfected using Transfast (Promega). For clonal selection, cells were cultured for 4 weeks in the presence of puromycin (1 μg/ml PC3) (Invitrogen). XCT790, an inverse agonist of ERRα was tested in vitro on PC3 cells at 5.10^−7M compare to DMSO for 24 h.
# Total RNA was extracted with Trizol reagent (Sigma) from PC3 cells, PC3 tumors, MC3T3-E1 cells. Samples of total RNA (2 μg) were reverse-transcribed using random hexamer (Promega) and the first strand synthesis kit of Superscript™ II (Invitrogen). Real-time RT-PCR was performed on a Roche Lightcycler Module (Roche) with primers specific for human and mouse. Real-time RT-PCR was carried out by using (SYBR Green; Qiagen,) on the LightCycler system on (Roche) according to the manufacturer's instructions with an initial step for 10 min at 95° C. followed by 40 cycles of 20 sec at 95° C., 10 sec at Tm (see Tables 1-2) and 10 sec at 72° C. We verified that a single peak was obtained for each product using the Roche software. Amplimers were all normalized to corresponding L32 values. Data analysis was carried out using the comparative Ct method: in real-time each replicate average genes CT was normalized to the average CT of L32 by subtracting the average CT of L32 from each replicate to give the ACT. Results are expressed as Log^-2 ΔΔCT with ΔΔCT equivalent to the ΔCT of the genes in PC3 (clone, XCT), tumors or treated MC3T3-E1 subtracting to the ACT of the endogenous control (empty vectors control for clones or tumors, DMSO for the XCT experiment and empty vectors control conditioned media treated MC3T3-E1 respectively).
# To confirm the regulation of the factors identified in PC3 over-expressing ERRα, we treat PC3 cells by the inverse agonist XCT790 (5 10^−7M) for 24 hours. XCT790 is able to block the interaction between ERRα and his co-activators PGC1a and b that will have as a consequence the inhibition of ERRα transcriptional activity.
smiles,measurement,value
"COc1cc(/C=C(\C#N)C(=O)Nc2nnc(C(F)(F)F)s2)ccc1OCc1ccc(C(F)(F)F)cc1C(F)(F)F [XCT790, (2E)-3-(4-{[2,4-bis(trifluoromethyl)benzyl]oxy}-3-methoxyphenyl)-2-cyano-N-[5-(trifluoromethyl)-1,3,4-thiadiazol-2-yl]acrylamide]",CK (cathepsin K) expression (real-time PCR),no CK were found statistically down-regulated
same,ET1 expression (real-time PCR),identified as direct ERRα/PGC1 target genes
same,MCP1 expression (real-time PCR),statistically down-regulated
same,OPG expression (real-time PCR),statistically down-regulated
same,Runx2 expression (real-time PCR),statistically down-regulated
same,Wnt3a expression (real-time PCR),identified as direct ERRα/PGC1 target genes
same,Wnt5a expression (real-time PCR),identified as direct ERRα/PGC1 target genes
